Data from patent US10899628B2, “Cerium sulfate chelated sulfur dioxide, a preparation method and a use thereof” (South China Normal University, priority 2017, dated 2021).
Where two headings read alike, the source gives them in different places.

Assays:
[1] = background statement, cited from earlier work
[2] = thermogravimetric analysis (TGA); assay type: physicochemical
Experimental: It is known from the TGA curve that the weight loss between 30.5° C. and 150° C. corresponds to the content of crystal water in the chelated molecules.

[3] = solubility in water, aqueous DMSO and DMSO; assay type: physicochemical

weight loss (crystal water) ([2]; between 30.5° C. and 150° C.)	product remained in the final residue (thermal stability) ([2]; final residue)	solubility in DMSO ([3]; DMSO)	solubility in about 4% aqueous solution of DMSO ([3]; about 4% aqueous solution of dimethyl sulfoxide)	Molecule	solubility in a solution of a certain acidity ([1]; acidic solution)	solubility in water ([1]; water)	solubility in water ([3]; water, standing for a period of time or heating under water bath of about 45 to 50° C.)
				O=S(=O)([O-])[O-].O=S(=O)([O-])[O-].[Ce+4] [Anhydrous cerium sulfate, anhydrous cerium sulfate]	highly soluble	not highly soluble	
11%	72.51%	insoluble	soluble	cerium sulfate chelated sulfur dioxide			forms an emulsion with water, and can dissolve after standing for a period of time or heating
